Reference: patent US8163756B2 (priority 2004, dated 2012)
Where a name gives a salt, the structure may show the parent alone.

Legend:
Assay type in all cases: biochemical
Abl kinase [1] = biological target: T1, Abl kinase (Homo sapiens, UniProt P00519); test: Abl kinase assay A2 (as A1, 1.1 nM enzyme, 2 h pre-incubation, 0.5 mM ATP)
T1 sequence (P00519 229-512): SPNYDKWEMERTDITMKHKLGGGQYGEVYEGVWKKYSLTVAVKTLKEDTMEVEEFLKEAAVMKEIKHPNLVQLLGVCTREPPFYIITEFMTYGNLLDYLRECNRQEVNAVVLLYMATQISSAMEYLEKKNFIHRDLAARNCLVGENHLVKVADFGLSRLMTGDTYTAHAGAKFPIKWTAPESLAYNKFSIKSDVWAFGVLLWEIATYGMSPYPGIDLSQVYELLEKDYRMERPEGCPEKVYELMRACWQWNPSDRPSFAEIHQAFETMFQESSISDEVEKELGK
Procedure: (§1) IC50 values were calculated from a series of percent inhibition values determined at a range of inhibitor concentrations using software routines as implemented in the GraphPad Prism software package.

B-Raf(V599E) kinase = B-Raf(V599E) kinase (Homo sapiens, UniProt P15056, V600E); test: B-Raf(V599E) kinase assay B1 (construct 1, MEK1 substrate, coupled spectrophotometric)
Procedure: The test compounds were incubated with the reaction mixtureat 30° C. for 2 h. […] The reaction rate was calculated using the […] time frame. […] IC50 values were calculated from a series of percent inhibition values determined at a range of inhibitor concentrations using software routines as implemented in the GraphPad Prism software package.

Abl kinase [2] = biological target: T1, Abl kinase; test: Abl kinase assay A1 (pyruvate kinase/lactate dehydrogenase coupled, spectrophotometric); conditions: Method A1; read-out: Abl Data (IC50)
Procedure: as §1

[3] = biological target: phosphorylated p-38-alpha kinase (Homo sapiens, UniProt Q16539); test: P-38 alpha kinase assay P1 (coupled spectrophotometric, 2 h pre-incubation); conditions: method P1 (2 h pre-incubation); read-out: P-38 Data
KDR kinase = KDR kinase (Homo sapiens, UniProt P35968, DEL940-989/E990V); test: KDR kinase assay K2 (as K1, 2.1 nM enzyme, 2 h pre-incubation, 1.0 mM ATP); conditions: Method K2; read-out: KDR Data (IC50)
Procedure: as §1

[4] = Method A2, read-out: Abl Data (IC50)

B-Raf(V599E) kinase, sequence (P15056 with tags, fused parts or gaps V600E): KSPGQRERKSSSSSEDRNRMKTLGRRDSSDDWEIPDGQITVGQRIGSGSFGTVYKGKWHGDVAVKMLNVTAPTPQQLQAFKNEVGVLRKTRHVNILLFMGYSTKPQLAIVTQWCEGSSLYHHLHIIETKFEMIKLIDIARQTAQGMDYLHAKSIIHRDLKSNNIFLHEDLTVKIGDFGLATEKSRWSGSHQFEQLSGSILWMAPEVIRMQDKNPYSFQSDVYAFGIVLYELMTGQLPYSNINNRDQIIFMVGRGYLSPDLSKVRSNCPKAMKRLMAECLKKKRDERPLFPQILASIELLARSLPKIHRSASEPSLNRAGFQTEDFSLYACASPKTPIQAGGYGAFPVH
phosphorylated p-38-alpha kinase, sequence (Q16539 1-360 isoform Q16539-2): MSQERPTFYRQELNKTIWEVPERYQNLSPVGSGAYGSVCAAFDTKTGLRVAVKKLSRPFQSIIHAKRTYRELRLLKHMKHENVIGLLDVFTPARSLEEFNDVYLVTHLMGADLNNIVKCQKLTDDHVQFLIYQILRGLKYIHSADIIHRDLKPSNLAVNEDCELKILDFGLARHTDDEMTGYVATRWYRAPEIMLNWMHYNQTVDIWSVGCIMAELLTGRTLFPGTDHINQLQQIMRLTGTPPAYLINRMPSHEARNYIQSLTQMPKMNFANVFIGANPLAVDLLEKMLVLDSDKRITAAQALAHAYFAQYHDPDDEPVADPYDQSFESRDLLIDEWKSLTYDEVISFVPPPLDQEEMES
KDR kinase, sequence (P35968 with tags, fused parts or gaps DEL940-989/E990V): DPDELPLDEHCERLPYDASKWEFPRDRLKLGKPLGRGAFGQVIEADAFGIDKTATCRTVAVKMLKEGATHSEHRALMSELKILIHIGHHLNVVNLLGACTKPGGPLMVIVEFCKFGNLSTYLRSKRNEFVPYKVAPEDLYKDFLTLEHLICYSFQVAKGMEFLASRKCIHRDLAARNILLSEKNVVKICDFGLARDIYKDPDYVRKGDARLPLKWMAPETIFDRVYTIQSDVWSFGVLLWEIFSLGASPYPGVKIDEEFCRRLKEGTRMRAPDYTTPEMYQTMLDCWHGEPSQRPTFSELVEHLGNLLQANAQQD

| SMILES | IC50 (Abl kinase [1]; [4]) [nM] | IC50 (B-Raf(V599E) kinase) [nM] | also measured |
| --- | --- | --- | --- |
| Cc1ccc(NC(=O)Nc2cc(C(C)(C)C)nn2-c2cccc(CC(=O)NCC(O)CO)c2)cc1Nc1ncccn1 (centres unmarked) [Example 38, 1-(3-t-butyl-1-(3-(2-(2,3-dihydroxypropylamino)-2-oxoethyl)phenyl)-1H-pyrazol-5-yl)-3-(4-methyl-3-(pyrimidin-2-ylamino)phenyl)urea] | 1400 |  |  |
| CC(C)(C)c1cc(NC(=O)Nc2cc(F)cc(F)c2F)n(-c2cc(CO)c3ccccc3c2)n1 [Example 65, 1-(3-t-butyl-1-(4-(hydroxymethyl)naphthalen-2-yl)-1H-pyrazol-5-yl)-3-(2,3,5-trifluorophenyl)urea] | 110 | 3 |  |
| CC(C)(C)c1cc(NC(=O)Nc2cccc(C#N)c2)n(-c2cc(CN)c3ccccc3c2)n1 [Example 73, 1-(1-(4-(aminomethyl)naphthalen-2-yl)-3-t-butyl-1H-pyrazol-5-yl)-3-(3-cyanophenyl)urea] | 190 | 45 |  |
| CC(C)(C)c1cc(NC(=O)Nc2cc(F)c(F)cc2F)n(-c2cc(CC(N)=O)c3ccccc3c2)n1 [Example 81, 1-(1-(4-(2-amino-2-oxoethyl)naphthalen-2-yl)-3-t-butyl-1H-pyrazol-5-yl)-3-(2,4,5-trifluorophenyl)urea] | 120 | 4.1 |  |
| CC(C)(C)c1cc(NC(=O)Nc2cc(F)cc(F)c2F)n(-c2cc(CC(=O)NCC(O)CO)c3ccccc3c2)n1 (centres unmarked) [Example 95, 1-(3-t-butyl-1-(4-(2-(2,3-dihydroxypropyl-amino)-2-oxoethyl)naphthalen-2-yl)-1H-pyrazol-5-yl)-3-(2,3,5-trifluorophenyl)urea] | 56 | 2.9 |  |
| CC(C)(C)c1cc(NC(=O)Nc2cccc(Oc3cccnc3)c2)n(-c2cc(CC(=O)NCC(O)CO)c3ccccc3c2)n1 (centres unmarked) [Example 97, 1-(3-t-butyl-1-(4-(2-(2,3-dihydroxypropyl-amino)-2-oxoethyl)naphthalen-2-yl)-1H-pyrazol-5-yl)-3-(3-(pyridin-3-yloxy)phenyl)urea] | 1.5 | 7.2 |  |
| Cn1ccc2cc(-n3nc(C(C)(C)C)cc3NC(=O)Nc3cccc(Cl)c3Cl)ccc21 [Example 117, 1-(3-t-butyl-1-(1-methyl-1H-indol-5-yl)-1H-pyrazol-5-yl)-3-(2,3-dichlorophenyl)urea] |  | 3.2 | IC50 (Abl kinase [2]): 230 nM; IC50 [3]: 59 nM; IC50 (KDR kinase): 58 nM |
| O=C1CCc2cc(-n3nc(C4CCCC4)cc3NC(=O)Nc3cccc(Oc4cccnc4)c3)ccc2N1 [Example 133, 1-(3-cyclopentyl-1-(2-oxo-1,2,3,4-tetrahydroquinolin-6-yl)-1H-pyrazol-5-yl)-3-(3-(pyridin-3-yloxy)phenyl)urea] | 48 |  |  |
| CC(C)(C)c1cc(NC(=O)Nc2cccc(C#N)c2)n(-c2ccc3c(c2)CCNC3)n1 [Example 139, 1-(3-t-butyl-1-(1,2,3,4-tetrahydro-isoquinolin-6-yl)-1H-pyrazol-5-yl)-3-(3-cyanophenyl)urea] | 140 |  |  |
| CC(C)(C)c1cc(NC(=O)Nc2cc(F)c(F)cc2F)n(-c2ccc3c(c2)CCNC3)n1 [Example 146, 1-(3-t-butyl-1-(1,2,3,4-tetrahydroiso-quinolin-6-yl)-1H-pyrazol-5-yl)-3-(2,4,5-trifluorophenyl)-urea] | 190 | 8.8 |  |
| CNC(=O)c1cc(Oc2ccc(NC(=O)Nc3cc(C(C)(C)C)nn3-c3ccc4c(c3)CCNC4)cc2)ccn1 [Example 148, 1-(3-t-butyl-1-(1,2,3,4-tetrahydroisoquinolin-6-yl)-1H-pyrazol-5-yl)-3-(4-(2-(methylcarbamoyl)pyridin-4-yloxy)phenyl)urea] | 1.2 | 31 |  |
| Cn1c(=O)c(-c2cccc(NC(=O)Nc3cc(C(C)(C)C)nn3-c3ccc4c(c3)CCNC4)c2)cc2cncnc21 [Example 149, 1-(3-t-butyl-1-(1,2,3,4-tetrahydroisoquinolin-6-yl)-1H-pyrazol-5-yl)-3-(3-(8-methyl-7-oxo-7,8-dihydropyrido[2,3-d]pyrimidin-6-yl)phenyl)urea] | 1.2 | 9.3 |  |
| CC(C)(C)c1cc(NC(=O)Nc2cccc(Oc3cncc(Cl)c3)c2)n(-c2ccc3c(c2)CCNC3)n1 [Example 150, 1-(3-t-butyl-1-(1,2,3,4-tetrahydroisoquinolin-6-yl)-1H-pyrazol-5-yl)-3-(3-(5-chloropyridin-3-yloxy)phenyl)urea] | 1.3 | 4.7 |  |
| CC(C)(C)c1cc(NC(=O)Nc2cc(F)cc(C#N)c2)n(-c2ccc3c(c2)CCNC3)n1 [Example 152, 1-(3-t-butyl-1-(1,2,3,4-tetrahydroisoquinolin-6-yl)-1H-pyrazol-5-yl)-3-(3-cyano-5-fluorophenyl)urea hydrochloride] |  |  | IC50 (Abl kinase [1]): 570 nM |
| CC(C)(C)c1cc(NC(=O)Nc2cccc(-c3ccc(N)nc3)c2)n(-c2ccc3c(c2)CCC(=O)N3)n1 [Example 160, 1-(3-(6-aminopyridin-3-yl)phenyl)-3-(3-t-butyl-1-(2-oxo-1,2,3,4-tetrahydroquinolin-6-yl)-1H-pyrazol-5-yl)urea] | 14900 |  |  |
| CC(C)(C)c1cc(NC(=O)Nc2cccc(-c3cccnc3)c2)n(-c2ccc3c(c2)CCC(=O)N3)n1 [Example 161, 1-(3-t-butyl-1-(2-oxo-1,2,3,4-tetrahydroquinolin-6-yl)-1H-pyrazol-5-yl)-3-(3-(pyridin-3-yl)phenyl)urea] |  |  | inhibition at 1 µM (Abl kinase [1]; @ 1 μM, Method A2, read-out: Abl Data (percent inhibition)): 3% |
| O=C(Nc1cccc(Oc2cccnc2)c1)Nc1cc(C2CCCC2)nn1-c1ccc2[nH]c(=O)ccc2c1 [Example 164, 1-(3-cyclopentyl-1-(2-oxo-1,2-dihydroquinolin-6-yl)-1H-pyrazol-5-yl)-3-(3-(pyridin-3-yloxy)phenyl)urea] | 33 |  |  |
| Cc1ccc(NC(=O)Nc2cc(C(C)(C)C)nn2-c2ccc3nc(N4CCNCC4)ccc3c2)cc1Nc1nccc(-c2cccnc2)n1 [Example 171, 1-(3-t-butyl-1-(2-(piperazin-1-yl)quinolin-6-yl)-1H-pyrazol-5-yl)-3-(4-methyl-3-(4-(pyridin-3-yl)pyrimidin-2-ylamino)phenyl)urea] | 4 |  |  |
| CC(C)(C)c1cc(NC(=O)Nc2ccc(-c3cccc4c3CNC4=O)cc2)n(-c2ccc3c(c2)CC(C(=O)O)NC3)n1 (centres unmarked) [Example 181, 6-(3-t-butyl-5-(3-(4-(1-oxoisoindolin-4-yl)phenyl)ureido)-1H-pyrazol-1-yl)-1,2,3,4-tetrahydroisoquinoline-3-carboxylic acid] | 6.6 |  |  |
| CC(C)(C)c1cc(NC(=O)Nc2cccc(Oc3cccnc3)c2)n(-c2ccc3c(c2)CC(C(=O)NCC(O)CO)NC3)n1 (centres unmarked) [Example 182, 1-(1-(3-((2,3-dihydroxypropyl)carbamoyl)-1,2,3,4-tetrahydroisoquinolin-6-yl)-3-t-butyl-1H-pyrazol-5-yl)-3-(3-(pyridin-3-yloxy)phenyl)urea] | 3.4 |  |  |
| CC(C)(C)c1cc(NC(=O)Nc2ccc(-c3cccc4c3CNC4=O)cc2)n(-c2ccc3c(c2)CC(C(N)=O)NC3)n1 (centres unmarked) [Example 183, 1-(3-t-butyl-1-(3-carbamoyl-1,2,3,4-tetrahydroisoquinolin-6-yl)-1H-pyrazol-5-yl)-3-(4-(1-oxoisoindolin-4-yl)phenyl)urea] | 20 |  |  |
| CC(C)(C)c1cc(NC(=O)Nc2cccc(Oc3cccnc3)c2)n(-c2ccc3c(c2)CCNC3C(=O)NCC(O)CO)n1 (centres unmarked) [Example 184, 1-(1-(1-((2,3-dihydroxypropyl)carbamoyl)-1,2,3,4-tetrahydroisoquinolin-6-yl)-3-t-butyl-1H-pyrazol-5-yl)-3-(3-(pyridin-3-yloxy)phenyl)urea] | 10 |  |  |
| CC(C)(C)c1cc(NC(=O)Nc2cccc(Cl)c2Cl)n(-c2ccc3c(c2)CC(C(N)=O)NC3)n1 (centres unmarked) [Example 188, 1-(3-t-butyl-1-(3-carbamoyl-1,2,3,4-tetrahydroisoquinolin-6-yl)-1H-pyrazol-5-yl)-3-(2,3-dichloro-phenyl)urea] |  | 5.8 | IC50 (Abl kinase [2]): 110 nM; IC50 [3]: 17 nM; IC50 (KDR kinase): 150 nM |
| CC(C)(C)c1cc(NC(=O)Nc2ccc(-c3cccc4c3CNC4=O)cc2)n(-c2ccc3c(c2)CCN3)n1 [Example 191, 1-(3-t-butyl-1-(indolin-5-yl)-1H-pyrazol-5-yl)-3-(4-(1-oxoisoindolin-4-yl)phenyl)urea] | 21 |  |  |
| CC(C)(C)c1cc(NC(=O)Nc2ccc(-c3cccc4c3CNC4=O)cc2)n(-c2ccc3c(c2)CCN3S(C)(=O)=O)n1 [Example 192, 1-(3-t-butyl-1-(1-(methylsulfonyl)indolin-5-yl)-1H-pyrazol-5-yl)-3-(4-(1-oxoisoindolin-4-yl)phenyl)urea] | 27 |  |  |
| CC(C)(C)c1cc(NC(=O)Nc2cccc(Cl)c2Cl)n(-c2ccc3c(=O)[nH]cnc3c2)n1 [Example 194, 1-(3-t-butyl-1-(4-oxo-3,4-dihydroquinazolin-7-yl)-1H-pyrazol-5-yl)-3-(2,3-dichlorophenyl)urea] | 540 |  |  |
